One assay concerns the target PIK3CD (Human) (UniProt O00329). As to the kind of experiment: Assessment of PIK3CD Kinase Activity.
For another assay, the target named is PIK3CA (human) (UniProt P42336). As to the kind of experiment: Assessment of PIK3CA Kinase Activity.
Another assay has as its target PIK3CB (Human) (UniProt P42338). The assay is described as follows: Assessment of PIK3CB Kinase Activity.
Another assay deals with PIK3CG (human) (UniProt P48736). As to the kind of experiment: Assessment of PIK3CG Kinase Activity.

Structures are written as SMILES. Where only a bound is given, the exact number is not on record here.

Chain of PIK3CD (Human) (O00329 whole entry, looked up): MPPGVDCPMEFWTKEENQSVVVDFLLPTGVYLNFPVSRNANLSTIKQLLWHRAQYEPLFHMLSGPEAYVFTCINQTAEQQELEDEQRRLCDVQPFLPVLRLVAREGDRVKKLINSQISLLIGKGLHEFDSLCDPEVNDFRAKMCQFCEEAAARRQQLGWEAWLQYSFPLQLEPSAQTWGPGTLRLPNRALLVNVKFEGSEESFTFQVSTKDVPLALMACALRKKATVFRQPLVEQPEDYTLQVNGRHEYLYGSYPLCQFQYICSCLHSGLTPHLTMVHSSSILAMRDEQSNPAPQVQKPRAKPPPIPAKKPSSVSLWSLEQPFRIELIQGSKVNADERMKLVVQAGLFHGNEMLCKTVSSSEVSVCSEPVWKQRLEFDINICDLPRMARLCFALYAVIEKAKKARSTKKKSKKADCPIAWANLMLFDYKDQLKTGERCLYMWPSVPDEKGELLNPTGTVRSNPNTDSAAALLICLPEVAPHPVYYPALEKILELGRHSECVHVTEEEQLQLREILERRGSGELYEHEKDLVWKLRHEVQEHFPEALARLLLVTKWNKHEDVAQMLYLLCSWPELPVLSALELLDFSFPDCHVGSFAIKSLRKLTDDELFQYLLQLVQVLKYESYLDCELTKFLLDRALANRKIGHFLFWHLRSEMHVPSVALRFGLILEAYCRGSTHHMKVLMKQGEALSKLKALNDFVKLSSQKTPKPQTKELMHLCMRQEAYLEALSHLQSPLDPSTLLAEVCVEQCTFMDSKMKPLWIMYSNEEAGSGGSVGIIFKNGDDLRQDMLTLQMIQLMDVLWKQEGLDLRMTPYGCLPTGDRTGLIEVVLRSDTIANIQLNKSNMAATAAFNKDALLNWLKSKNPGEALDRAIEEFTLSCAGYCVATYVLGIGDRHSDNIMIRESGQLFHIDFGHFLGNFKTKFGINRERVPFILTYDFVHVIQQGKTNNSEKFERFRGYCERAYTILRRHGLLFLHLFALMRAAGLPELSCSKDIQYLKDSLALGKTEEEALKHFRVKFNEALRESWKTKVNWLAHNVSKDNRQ
Chain of PIK3CB (Human) (P42338 whole entry, looked up): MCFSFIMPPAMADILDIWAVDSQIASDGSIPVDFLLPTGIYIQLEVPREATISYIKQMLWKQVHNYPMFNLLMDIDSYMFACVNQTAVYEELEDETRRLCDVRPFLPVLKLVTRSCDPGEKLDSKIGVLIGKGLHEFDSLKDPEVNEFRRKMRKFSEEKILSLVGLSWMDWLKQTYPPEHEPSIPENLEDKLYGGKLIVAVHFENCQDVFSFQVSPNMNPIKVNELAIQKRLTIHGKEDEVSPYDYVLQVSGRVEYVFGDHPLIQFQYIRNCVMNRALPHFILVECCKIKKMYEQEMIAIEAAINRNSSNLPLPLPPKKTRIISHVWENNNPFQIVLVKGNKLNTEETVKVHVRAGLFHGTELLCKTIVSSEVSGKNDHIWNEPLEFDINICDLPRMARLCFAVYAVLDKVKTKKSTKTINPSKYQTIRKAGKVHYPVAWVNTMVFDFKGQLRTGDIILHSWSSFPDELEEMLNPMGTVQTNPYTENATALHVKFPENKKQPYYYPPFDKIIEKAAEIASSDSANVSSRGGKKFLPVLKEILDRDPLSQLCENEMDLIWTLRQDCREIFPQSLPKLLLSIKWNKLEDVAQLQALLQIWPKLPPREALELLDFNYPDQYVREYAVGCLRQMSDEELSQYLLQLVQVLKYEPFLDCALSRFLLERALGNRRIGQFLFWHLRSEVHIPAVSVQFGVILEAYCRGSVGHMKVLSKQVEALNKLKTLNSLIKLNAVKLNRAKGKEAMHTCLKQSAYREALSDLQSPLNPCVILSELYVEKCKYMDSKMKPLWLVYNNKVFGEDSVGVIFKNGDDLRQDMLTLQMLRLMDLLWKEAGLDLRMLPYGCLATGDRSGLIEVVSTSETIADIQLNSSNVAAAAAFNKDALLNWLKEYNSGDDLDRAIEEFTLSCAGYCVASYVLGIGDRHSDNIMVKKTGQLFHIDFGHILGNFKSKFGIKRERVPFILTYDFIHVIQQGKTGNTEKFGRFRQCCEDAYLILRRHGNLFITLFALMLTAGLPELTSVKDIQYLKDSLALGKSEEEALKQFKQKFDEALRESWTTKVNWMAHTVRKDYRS
Chain of PIK3CA (human) (P42336 whole entry, looked up): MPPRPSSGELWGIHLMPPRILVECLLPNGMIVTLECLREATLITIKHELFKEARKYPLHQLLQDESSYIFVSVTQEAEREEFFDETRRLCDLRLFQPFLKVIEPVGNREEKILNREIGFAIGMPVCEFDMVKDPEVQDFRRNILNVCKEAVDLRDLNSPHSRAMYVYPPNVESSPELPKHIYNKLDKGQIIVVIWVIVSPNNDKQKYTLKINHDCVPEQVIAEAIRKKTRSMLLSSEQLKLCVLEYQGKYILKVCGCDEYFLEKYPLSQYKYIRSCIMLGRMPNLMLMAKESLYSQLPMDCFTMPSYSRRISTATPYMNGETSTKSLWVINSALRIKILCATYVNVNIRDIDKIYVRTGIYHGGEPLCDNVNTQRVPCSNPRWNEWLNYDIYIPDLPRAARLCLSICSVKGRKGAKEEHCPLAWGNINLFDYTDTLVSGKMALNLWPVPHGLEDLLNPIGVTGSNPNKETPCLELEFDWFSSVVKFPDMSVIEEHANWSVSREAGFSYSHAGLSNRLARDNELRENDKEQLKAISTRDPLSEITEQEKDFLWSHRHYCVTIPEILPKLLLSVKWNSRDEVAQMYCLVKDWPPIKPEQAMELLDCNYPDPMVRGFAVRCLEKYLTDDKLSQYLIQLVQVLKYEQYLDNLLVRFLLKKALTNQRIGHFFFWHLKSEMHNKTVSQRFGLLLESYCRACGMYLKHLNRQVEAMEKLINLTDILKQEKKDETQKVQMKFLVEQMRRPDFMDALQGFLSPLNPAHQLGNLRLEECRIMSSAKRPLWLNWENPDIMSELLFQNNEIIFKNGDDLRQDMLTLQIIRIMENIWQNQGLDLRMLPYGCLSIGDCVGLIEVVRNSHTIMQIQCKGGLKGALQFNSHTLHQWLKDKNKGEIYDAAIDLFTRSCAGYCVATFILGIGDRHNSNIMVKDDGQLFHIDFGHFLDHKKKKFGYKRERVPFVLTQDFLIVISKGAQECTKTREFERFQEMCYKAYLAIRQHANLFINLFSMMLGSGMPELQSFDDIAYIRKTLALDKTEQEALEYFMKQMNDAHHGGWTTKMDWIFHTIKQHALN
Chain of PIK3CG (human) (P48736 whole entry, looked up): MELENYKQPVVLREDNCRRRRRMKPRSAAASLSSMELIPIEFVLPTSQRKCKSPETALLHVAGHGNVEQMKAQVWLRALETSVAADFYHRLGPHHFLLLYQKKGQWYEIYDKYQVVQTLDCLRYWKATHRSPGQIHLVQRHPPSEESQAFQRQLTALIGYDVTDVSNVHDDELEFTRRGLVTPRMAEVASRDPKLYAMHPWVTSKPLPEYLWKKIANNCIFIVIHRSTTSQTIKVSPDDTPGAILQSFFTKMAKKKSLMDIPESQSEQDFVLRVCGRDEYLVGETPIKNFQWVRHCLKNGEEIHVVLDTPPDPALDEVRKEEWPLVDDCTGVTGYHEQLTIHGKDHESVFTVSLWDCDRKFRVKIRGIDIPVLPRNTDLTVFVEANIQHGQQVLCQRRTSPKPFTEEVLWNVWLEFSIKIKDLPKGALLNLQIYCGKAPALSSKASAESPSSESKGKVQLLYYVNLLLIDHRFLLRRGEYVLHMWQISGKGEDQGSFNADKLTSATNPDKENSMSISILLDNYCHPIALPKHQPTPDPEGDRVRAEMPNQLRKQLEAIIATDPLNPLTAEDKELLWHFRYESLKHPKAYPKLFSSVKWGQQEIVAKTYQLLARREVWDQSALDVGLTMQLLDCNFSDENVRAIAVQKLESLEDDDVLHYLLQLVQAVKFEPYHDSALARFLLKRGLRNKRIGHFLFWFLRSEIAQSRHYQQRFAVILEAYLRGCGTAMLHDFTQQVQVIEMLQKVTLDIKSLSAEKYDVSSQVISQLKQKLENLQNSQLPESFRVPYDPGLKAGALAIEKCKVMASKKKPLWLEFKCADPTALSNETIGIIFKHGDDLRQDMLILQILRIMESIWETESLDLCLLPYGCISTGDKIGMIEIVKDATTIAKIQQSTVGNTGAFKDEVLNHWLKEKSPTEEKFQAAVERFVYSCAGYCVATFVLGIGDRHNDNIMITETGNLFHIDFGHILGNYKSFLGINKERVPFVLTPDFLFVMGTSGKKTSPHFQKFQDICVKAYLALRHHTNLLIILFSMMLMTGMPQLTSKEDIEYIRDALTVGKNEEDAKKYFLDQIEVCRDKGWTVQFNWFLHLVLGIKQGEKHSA

For orientation: IC50 means the midpoint of a concentration-inhibition curve. Low readings indicate inhibition by little substance, high ones a need for much substance. As for `C[C@H]1COCCN1c1nc(-c2ccc(NC(=O)NC3CCC3)cc2)nc2c1CN(C)C2`, on PIK3CD (Human), the IC50 was more than 10 µM.

As for `C[C@H]1COCCN1c1nc(-c2ccc(NC(=O)NCCN(C)C)cc2)nc2c1CN(C)C2`, the IC50 on PIK3CA (human), against PIK3CD (Human) and on PIK3CB (Human) was 0.1 to 1 µM each time.

`COCCCNC(=O)Nc1ccc(-c2nc3c(c(N4CCOC[C@@H]4C)n2)CN(C)C3)cc1`: the concentration for half-maximal inhibition (IC50) against PIK3CD (Human) is more than 10 µM.

As for `COC(=O)N1Cc2nc(-c3ccc(NC(=O)NCCF)cc3F)nc(N3CCOCC3)c2C1`, the IC50 at PIK3CA (human), at PIK3CD (Human), on PIK3CG (human) and against PIK3CB (Human) was more than 10 µM each time.

With `C[C@H]1COCCN1c1nc(-c2ccc(NC(=O)NCCCO)cc2)nc2c1CN(C)C2`, the IC50 against PIK3CD (Human) was more than 10 µM.

(Values after the Kinase Knowledgebase extract (Sharma et al. 2016).)
